In ChEMBL document CHEMBL5346933, “Design and synthesis of novel arylurea derivatives of aryloxy(1-phenylpropyl) alicyclic diamines with antimicrobial activity against multidrug-resistant Gram-positive bacteria” (Eur J Med Chem, 2023):
Converted amounts (≈) assume the structure as drawn. The source made the active and inactive calls. The calls are words filed in the database; no cut-off is given here.

What was measured:
[1] = system: Staphylococcus epidermidis; test: Ratio of MBC to MIC for biofilm producer Staphylococcus epidermidis ATCC 35984; type: functional
Staphylococcus aureus [2] = test: Ratio of MBC to MIC for vancomycin-intermediate Staphylococcus aureus ATCC 700699; type: functional
[3] = Induction of hemolysis in horse RBC at 200 uM incubated for 1 hr; type: toxicity, cell-based, Equus caballus, Erythrocyte; conditions: horse red blood cells (erythrocytes), read-out: Activity
Pseudomonas aeruginosa = test: Antibacterial activity against Pseudomonas aeruginosa ATCC 27853 assessed as inhibition of bacterial growth incubated for 18 hrs by broth microdilution method; type: functional
[4] = system: Staphylococcus epidermidis; test: Bactericidal activity against biofilm producer Staphylococcus epidermidis ATCC 35984 assessed as reduction in colony forming units incubated for 18 hrs in broth followed by culturing on agar plate for 24 hrs; type: functional; conditions: time 42 hrs, read-out: MBC99.9
[5] = system: Staphylococcus epidermidis; test: Bactericidal activity against methicillin- susceptible Staphylococcus epidermidis ATCC 12228 assessed as reduction in colony forming units incubated for 18 hrs in broth followed by culturing on agar plate for 24 hrs; type: functional; conditions: time 42 hrs, read-out: MBC99.9
Klebsiella pneumoniae = test: Antibacterial activity against Klebsiella pneumoniae ATCC 700603 assessed as inhibition of bacterial growth incubated for 18 hrs by broth microdilution method; type: functional
Cell membrane [6] = test: Induction of cell membrane depolarization in Staphylococcus aureus Newman assessed as bacterial cells with depolarized membrane potential at 2XMIC incubated for 25 to 30 mins by DiOC2(3) probe based flow cytometry (reference value: 1.6%); type: subcellular; conditions: time 25-30 min
[7] = system: Staphylococcus epidermidis; test: Ratio of MBC to MIC for linezolid-resistant Staphylococcus epidermidis NIL 4399/19; type: functional
[8] = system: Staphylococcus epidermidis; test: Antibacterial activity against biofilm producer Staphylococcus epidermidis ATCC 35984 assessed as inhibition of bacterial growth incubated for 18 hrs by broth microdilution method; type: functional
[9] = Metabolic stability in rat liver microsomes assessed as parent compound remaining at 0.4 mg/ml preincubated for 10 mins followed by NADPH-regenerating system addition for 60 mins by UPLC-MS analysis; type: ADME, Microsome; conditions: time 70 min, read-out: Stability
Staphylococcus aureus [10] = test: Antibacterial activity against methicillin-susceptible Staphylococcus aureus ATCC 25923 assessed as inhibition of bacterial growth measured for 18 hrs by OD600 based analysis; type: functional, organism-based
Staphylococcus aureus [11] = test: Ratio of MBC to MIC for biofilm producer Staphylococcus aureus RN450; type: functional
Cell membrane [12] = test: Induction of cell membrane depolarization in Staphylococcus aureus Newman assessed as bacterial cells with polarized membrane potential at MIC incubated for 25 to 30 mins by DiOC2(3) probe based flow cytometry (reference value: 94.3%); type: subcellular; conditions: time 25-30 min
Enterococcus faecalis = test: Antibacterial activity against Enterococcus faecalis ATCC 29212 assessed as inhibition of bacterial growth incubated for 18 hrs by broth microdilution method; type: functional
Streptococcus pneumoniae [13] = test: Antibacterial activity against macrolides-lincosamides and streptogramins B-resistant Streptococcus pneumoniae O/19/4199 assessed as inhibition of bacterial growth incubated for 18 hrs by broth microdilution method; type: functional
Cell membrane [14] = test: Induction of cell membrane depolarization in methicillin-resistant Staphylococcus aureus 19449 assessed as bacterial cells with polarized membrane potential at MIC incubated for 25 to 30 mins by DiOC2(3) probe based flow cytometry (reference value: 98.8%); type: subcellular; conditions: time 25-30 min
Cell membrane [15] = test: Induction of cell membrane depolarization in methicillin-resistant Staphylococcus aureus 19449 assessed as bacterial cells with depolarized membrane potential at 2XMIC incubated for 25 to 30 mins by DiOC2(3) probe based flow cytometry (reference value: 0.7%); type: subcellular; conditions: time 25-30 min
Staphylococcus aureus [16] = test: Antibacterial activity against vancomycin-intermediate Staphylococcus aureus ATCC 700699 assessed as inhibition of bacterial growth incubated for 18 hrs by broth microdilution method; type: functional
Cell membrane [17] = test: Induction of cell membrane depolarization in methicillin-resistant Staphylococcus aureus 19449 assessed as ratio of red to green fluorescence intensity at MIC incubated for 25 to 30 mins by DiOC2(3) probe based flow cytometry; type: subcellular; conditions: time 25-30 min
[18] = Cytotoxicity against human MRC5 cells assessed as reduction in cell viability incubated for 24 hrs by MTT assay; type: toxicity, cell-based
[19] = system: Staphylococcus epidermidis; test: Ratio of MBC to MIC for methicillin-susceptible Staphylococcus epidermidis ATCC 12228; type: functional
Streptococcus pneumoniae [20] = test: Antibacterial activity against Oxacillin-resistant Streptococcus pneumoniae O/19/4541 assessed as inhibition of bacterial growth incubated for 18 hrs by broth microdilution method; type: functional
Cell membrane [21] = test: Induction of cell membrane depolarization in methicillin-resistant Staphylococcus aureus 19449 assessed as bacterial cells with polarized membrane potential at 4 times MIC incubated for 25 to 30 mins by DiOC2(3) probe based flow cytometry (reference value: 98.8%); type: subcellular; conditions: time 25-30 min
Staphylococcus aureus [22] = test: Antibacterial activity against vancomycin-intermediate Staphylococcus aureus ATCC 700699 assessed as inhibition of bacterial growth measured for 18 hrs by OD600 based analysis; type: functional, organism-based
Staphylococcus aureus [23] = test: Bactericidal activity against biofilm producer Staphylococcus aureus RN450 assessed as reduction in colony forming units incubated for 18 hrs in broth followed by culturing on agar plate for 24 hrs; type: functional; conditions: time 42 hrs, read-out: MBC99.9
Cell membrane [24] = test: Induction of cell membrane depolarization in Staphylococcus aureus Newman assessed as bacterial cells with depolarized membrane potential at MIC incubated for 25 to 30 mins by DiOC2(3) probe based flow cytometry (reference value: 1.6%); type: subcellular; conditions: time 25-30 min
Staphylococcus aureus [25] = test: Bactericidal activity against methicillin-susceptible Staphylococcus aureus ATCC 25923 assessed as reduction in colony forming units incubated for 18 hrs in broth followed by culturing on agar plate for 24 hrs; type: functional; conditions: time 42 hrs, read-out: MBC99.9
Cell membrane [26] = test: Induction of cell membrane depolarization in Staphylococcus aureus Newman assessed as bacterial cells with polarized membrane potential at 4 times MIC incubated for 25 to 30 mins by DiOC2(3) probe based flow cytometry (reference value: 94.3%); type: subcellular; conditions: time 25-30 min
Cell membrane [27] = test: Induction of cell membrane depolarization in methicillin-resistant Staphylococcus aureus 19449 assessed as bacterial cells with polarized membrane potential at 2XMIC incubated for 25 to 30 mins by DiOC2(3) probe based flow cytometry (reference value: 98.8%); type: subcellular; conditions: time 25-30 min
Enterococcus faecium = test: Bactericidal activity against vancomycin-resistant Enterococcus faecium clinical strain assessed as reduction in colony forming units incubated for 18 hrs in broth followed by culturing on agar plate for 24 hrs; type: functional; conditions: time 42 hrs, read-out: MBC99.9
[28] = Cytotoxicity against human BJ cells assessed as reduction in cell viability incubated for 24 hrs by MTT assay; type: toxicity, cell-based
Staphylococcus aureus [29] = test: Antibacterial activity against Staphylococcus aureus Newman assessed as inhibition of bacterial growth incubated for 18 hrs by broth microdilution method; type: functional
Staphylococcus aureus [30] = test: Bactericidal activity against vancomycin-intermediate Staphylococcus aureus ATCC 700699 assessed as log reduction of bacterial colony forming units at 4 times MIC incubated for 20 hrs in broth followed by culturing on agar plate for 24 hrs by time-killing assay; type: functional; conditions: time 44 hrs
[31] = system: Staphylococcus epidermidis; test: Antibacterial activity against linezolid-resistant Staphylococcus epidermidis NIL 4399/19 assessed as inhibition of bacterial growth incubated for 18 hrs by broth microdilution method; type: functional
Escherichia coli = test: Antibacterial activity against Escherichia coli ATCC 25922 assessed as inhibition of bacterial growth incubated for 18 hrs by broth microdilution method; type: functional
Cell membrane [32] = test: Induction of cell membrane depolarization in vancomycin-resistant Enterococcus faecium clinical strain assessed as bacterial cells with depolarized membrane potential at 4 times MIC incubated for 25 to 30 mins by DiOC2(3) probe based flow cytometry (reference value: 0.8%); type: subcellular; conditions: time 25-30 min

## O=C(Nc1cccc(Cl)c1)NC1CCN(CCC(Oc2cccc(C(F)(F)F)c2)c2ccccc2)CC1 (racemic)
[1]
  Ratio: 4
Staphylococcus aureus [2]
  Ratio: 4
[3]
  hemolysis at 1 h, 200 µM: < 1%
Pseudomonas aeruginosa
  MIC: > 12.5 µg/mL
[4]
  MBC: 6.25 µg/mL (≈ 11.7 µM)
[5]
  MBC: 3.12 µg/mL (≈ 5.87 µM)
Klebsiella pneumoniae
  MIC: > 12.5 µg/mL
Cell membrane [6]
  Activity: 89.3%
[7]
  Ratio: 2
[8]
  MIC: 1.56 µg/mL (≈ 2.93 µM)
[9]
  remaining at 1 h: 95%
Staphylococcus aureus [10]
  Activity: Active
Staphylococcus aureus [11]
  Ratio: 4
Cell membrane [12]
  Activity: 0.6%
Enterococcus faecalis
  MIC: 1.56 µg/mL (≈ 2.93 µM)
Streptococcus pneumoniae [13]
  MIC: 6.25 µg/mL (≈ 11.7 µM)
Cell membrane [14]
  Activity: 6%
Cell membrane [15]
  Activity: 96.8%
Staphylococcus aureus [16]
  MIC: 3.12 µg/mL (≈ 5.87 µM)
Cell membrane [17]
  Ratio: 0.53
[18]
  IC50 at 24 h: 12.5 µg/mL (≈ 23.5 µM)
[19]
  Ratio: 1
Streptococcus pneumoniae [20]
  MIC: 12.5 µg/mL (≈ 23.5 µM)
Cell membrane [21]
  Activity: 0%
Staphylococcus aureus [22]
  Activity: Active
Staphylococcus aureus [23]
  MBC: 6.25 µg/mL (≈ 11.7 µM)
Cell membrane [24]
  Activity: 89%
Staphylococcus aureus [25]
  MBC: 12.5 µg/mL (≈ 23.5 µM)
Cell membrane [26]
  Activity: 0%
Cell membrane [27]
  Activity: 0.1%
Enterococcus faecium
  MBC: 6.25 µg/mL (≈ 11.7 µM)
[28]
  IC50 at 24 h: > 25 µg/mL
Staphylococcus aureus [29]
  MIC: 1.56 µg/mL (≈ 2.93 µM)
Staphylococcus aureus [30]
  Activity: >=3 log10CFU/ml
[31]
  MIC: 3.12 µg/mL (≈ 5.87 µM)
Escherichia coli
  MIC: > 12.5 µg/mL
Cell membrane [32]
  Activity: 89.3%
